Assay results published in patent US7351431B2, “Freeze-dried pharmaceutical preparation” (Dainippon Sumitomo Pharma Co., Ltd., priority 2001, dated 2008).

Assay: Content of drug solution in 2-methyl-2-propanol during stirring by Polytron or stirrer
Type: physicochemical
Conditions: about 40° C.; for Content [vs. 0 h %]: about 4.0 mg/mL in 2-methyl-2-propanol
Procedure: Then, whether the content and analogous substance are affected by stirring in a homomixer was considered. To cis[((1R,2R)-1,2-cyclohexanediamine-N,N′)bis(tetradecanoyloxy)]platinum(II) monohydrate was added 2-methyl-2-propanol to a liquid formulation concentration of about 4.0 mg/mL. This was prepared in two Erlenmeyer flasks. One Erlenmeyer flask was stirred with a stirrer at a liquid temperature of about 40° C. after ultrasonication. The other Erlenmeyer flask was stirred at about 10000 rpm at a liquid temperature of about 40° C. using Polytron pulverizer (pulverization diameter G8) manufactured by IKA that pulverizes and dissolves by the same mechanism as a homogenizer. The stirring was continued with the time point when the bulk was dissolved as 0 hr. The drug solution was sampled with the lapse of time and the dissolution state was observed and the content and analogous substances were measured.

CCCCCCCCCCCCCC(=O)[O][Pt]1([O]C(=O)CCCCCCCCCCCCC)[NH][C@@H]2CCCC[C@H]2[NH]1 [bulk, cis[((1R,2R)-1,2-cyclohexanediamine-N,N′)bis(tetradecanoyloxy)]platinum(II) monohydrate]
Content [vs. 0 h %] (Polytron, stirring time 0): 100%
Content [vs. 0 h %] (Polytron, stirring time 0.5 h): 99.5%
Content [vs. 0 h %] (Polytron, stirring time 1 h): 99.4%
Content [vs. 0 h %] (Polytron, stirring time 2 h): 100.9%
Content and analogous substances with the lapse of stirring time (any stirring method (Polytron or stirrer)): showed no change
Content [vs. 0 h %] (stirrer, stirring time 0): 100%
Content [vs. 0 h %] (stirrer, stirring time 0.5 h): 100.9%
Content [vs. 0 h %] (stirrer, stirring time 1 h): 100.2%
Content [vs. 0 h %] (stirrer, stirring time 2 h): 103.1%
